Assay results: ChEMBL document CHEMBL1201862, “PubChem BioAssay data set” (2004)
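48-hour exposure; five concentrations; linearly interpolated endpoints. GI50 marks 50% less growth.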 Activity calls are given as the source filed them. Rule as the data show it: active = GI50 up to about 1.1 µM and inactive = higher.

What was measured:
Assay in all cases: NCI-60 cell line screen, 48 h
SNB-19 = system: SNB-19
NCI-H226 = system: NCI-H226
SW-620 = system: SW-620
CCRF-CEM = system: CCRF-CEM
LOX IMVI = system: LOX IMVI
UACC-62 = system: UACC-62
A498 = system: A498
NCI-H522 = system: NCI-H522
SK-MEL-28 = system: SK-MEL-28
K562 = system: K562
IGROV-1 = system: IGROV-1
COLO 205 = system: COLO 205
OVCAR-8 = system: OVCAR-8
SK-MEL-2 = system: SK-MEL-2
TK-10 = system: TK-10
SR = system: SR

| SMILES | GI50 (SNB-19) | GI50 (NCI-H226) | GI50 (SW-620) | GI50 (CCRF-CEM) | GI50 (LOX IMVI) | GI50 (UACC-62) | GI50 (A498) | GI50 (NCI-H522) | GI50 (SK-MEL-28) | GI50 (K562) | GI50 (IGROV-1) | GI50 (COLO 205) | GI50 (OVCAR-8) | GI50 (SK-MEL-2) | GI50 (TK-10) | GI50 (SR) |
| --- | --- | --- | --- | --- | --- | --- | --- | --- | --- | --- | --- | --- | --- | --- | --- | --- |
| Cc1ccc(N(C(=O)CC(=O)NN)C(=O)c2ccccc2Cl)cc1 | > 100 µM (inactive) | > 100 µM (inactive) | > 100 µM (inactive) | > 100 µM (inactive) | > 100 µM (inactive) | > 100 µM (inactive) | > 100 µM (inactive) | > 100 µM (inactive) | > 100 µM (inactive) | > 100 µM (inactive) | > 100 µM (inactive) | > 100 µM (inactive) | > 100 µM (inactive) | – | – | – |
| Cn1nc(N)nc1N=S(C)(C)=N | > 100 µM (inactive) | 72.4 µM (inactive) | > 100 µM (inactive) | > 100 µM (inactive) | – | > 100 µM (inactive) | > 100 µM (inactive) | 83.9 µM (inactive) | > 100 µM (inactive) | > 100 µM (inactive) | > 100 µM (inactive) | > 100 µM (inactive) | > 100 µM (inactive) | > 100 µM (inactive) | > 100 µM (inactive) | – |
| COC(=O)c1nn(C(=N)c2ccc(Cl)cc2)c2c1CCC2 | > 100 µM (inactive) | > 100 µM (inactive) | > 100 µM (inactive) | > 100 µM (inactive) | > 100 µM (inactive) | > 100 µM (inactive) | > 100 µM (inactive) | > 100 µM (inactive) | > 100 µM (inactive) | > 100 µM (inactive) | > 100 µM (inactive) | > 100 µM (inactive) | > 100 µM (inactive) | > 100 µM (inactive) | > 100 µM (inactive) | 14.7 µM (inactive) |
| c1cc2c(cc1C1OCC3C(c4ccc5c(c4)OCO5)OCC13)OCO2 (stereo not drawn) | > 100 µM (inactive) | 58.3 µM (inactive) | > 100 µM (inactive) | 32.3 µM (inactive) | 73.1 µM (inactive) | 50 µM (inactive) | 55.3 µM (inactive) | 65.8 µM (inactive) | 64.7 µM (inactive) | 35.6 µM (inactive) | 75.2 µM (inactive) | 67.8 µM (inactive) | 85.3 µM (inactive) | 98.2 µM (inactive) | 78.9 µM (inactive) | – |
| O=C1C(=O)N(c2cc(Cl)ccc2Cl)C(=O)C(=O)C1c1nc2ccccc2s1 | > 100 µM (inactive) | 34.4 µM (inactive) | > 100 µM (inactive) | 62.4 µM (inactive) | > 100 µM (inactive) | > 100 µM (inactive) | > 100 µM (inactive) | > 100 µM (inactive) | > 100 µM (inactive) | 93.1 µM (inactive) | > 100 µM (inactive) | > 100 µM (inactive) | > 100 µM (inactive) | > 100 µM (inactive) | > 100 µM (inactive) | – |
| COC1=C(OC)CCC(/C(C#N)=C/c2ccc(OC)c(OC)c2)=C1 | – | > 100 µM (inactive) | > 100 µM (inactive) | > 100 µM (inactive) | > 100 µM (inactive) | > 100 µM (inactive) | > 100 µM (inactive) | 21.4 µM (inactive) | > 100 µM (inactive) | 48.3 µM (inactive) | 56.4 µM (inactive) | 95.3 µM (inactive) | > 100 µM (inactive) | 85.9 µM (inactive) | 34.2 µM (inactive) | 66.7 µM (inactive) |
| Cc1ccccc1NC(=O)C(=O)CC(=O)c1sc(-n2nc(-c3ccccc3)cc2-c2ccccc2)nc1C | > 100 µM (inactive) | > 100 µM (inactive) | > 100 µM (inactive) | > 100 µM (inactive) | > 100 µM (inactive) | > 100 µM (inactive) | > 100 µM (inactive) | > 100 µM (inactive) | – | > 100 µM (inactive) | > 100 µM (inactive) | > 100 µM (inactive) | > 100 µM (inactive) | > 100 µM (inactive) | > 100 µM (inactive) | > 100 µM (inactive) |
| COC(=O)CC1NC(=O)[C@@H]1C(C)O (stereo partly drawn) | > 100 µM (inactive) | > 100 µM (inactive) | > 100 µM (inactive) | > 100 µM (inactive) | > 100 µM (inactive) | > 100 µM (inactive) | > 100 µM (inactive) | – | > 100 µM (inactive) | > 100 µM (inactive) | > 100 µM (inactive) | > 100 µM (inactive) | > 100 µM (inactive) | > 100 µM (inactive) | > 100 µM (inactive) | > 100 µM (inactive) |
| COc1cc2c[n+](C)c3c4cc(OC)c(OC(C)C)cc4ccc3c2cc1OC | 51.8 µM (inactive) | 98.4 µM (inactive) | 36.3 µM (inactive) | 56.2 µM (inactive) | 46.5 µM (inactive) | 37.3 µM (inactive) | – | 16.9 µM (inactive) | 57.7 µM (inactive) | 32.3 µM (inactive) | 45.1 µM (inactive) | 10.5 µM (inactive) | 35.4 µM (inactive) | 20.1 µM (inactive) | > 100 µM (inactive) | 43.2 µM (inactive) |
| Brc1c2nc3ccccc3nc2n2ccc3ccccc3c12 | > 100 µM (inactive) | – | > 100 µM (inactive) | > 100 µM (inactive) | > 100 µM (inactive) | > 100 µM (inactive) | – | 69.5 µM (inactive) | > 100 µM (inactive) | > 100 µM (inactive) | 47.6 µM (inactive) | > 100 µM (inactive) | > 100 µM (inactive) | > 100 µM (inactive) | > 100 µM (inactive) | > 100 µM (inactive) |
| COC(=O)C(CC(=O)c1c[nH]c2ccccc12)c1c[nH]c2ccccc12 (stereo not drawn) | – | 22 µM (inactive) | 22.8 µM (inactive) | 17.9 µM (inactive) | – | > 10 µM (inactive) | 20.3 µM (inactive) | – | 19.5 µM (inactive) | 18.1 µM (inactive) | > 10 µM (inactive) | – | 22.6 µM (inactive) | 20.1 µM (inactive) | 31.2 µM (inactive) | – |
| CN(C)CCCOc1ccc(/C=C2/CCC/C(=C/c3ccc(OCCCN(C)C)cc3)C2=O)cc1 | 2.08 µM (inactive) | – | 1.77 µM (inactive) | 0.824 µM (active) | 1.51 µM (inactive) | 1.91 µM (inactive) | 1.85 µM (inactive) | 1.8 µM (inactive) | 1.79 µM (inactive) | 0.299 µM (active) | 2.72 µM (inactive) | 1.73 µM (inactive) | 3.08 µM (inactive) | 2.03 µM (inactive) | 2.67 µM (inactive) | – |
| CCCOc1nc(N)c2cnn(C3CCCCO3)c2n1 (stereo not drawn) | > 100 µM (inactive) | > 100 µM (inactive) | > 100 µM (inactive) | > 100 µM (inactive) | – | > 100 µM (inactive) | – | > 100 µM (inactive) | > 100 µM (inactive) | > 100 µM (inactive) | > 100 µM (inactive) | > 100 µM (inactive) | > 100 µM (inactive) | > 100 µM (inactive) | – | > 100 µM (inactive) |
| CC(C)(C)C(=O)/C=C/c1cccc(Oc2ccccc2)c1 | 15.5 µM (inactive) | 18.2 µM (inactive) | > 10 µM (inactive) | 4.08 µM (inactive) | – | – | 20 µM (inactive) | 15.3 µM (inactive) | 16.4 µM (inactive) | 5.93 µM (inactive) | 28.2 µM (inactive) | – | 13.6 µM (inactive) | 13.1 µM (inactive) | > 10 µM (inactive) | 4.2 µM (inactive) |
| CN(c1n[n+]2c(-c3ccccc3)csc2s1)c1n[n+]2c(-c3ccccc3)csc2s1 | > 100 µM (inactive) | > 100 µM (inactive) | > 100 µM (inactive) | 68.9 µM (inactive) | > 100 µM (inactive) | > 100 µM (inactive) | – | 33.7 µM (inactive) | > 100 µM (inactive) | 42.8 µM (inactive) | > 100 µM (inactive) | 46.7 µM (inactive) | > 100 µM (inactive) | > 100 µM (inactive) | > 100 µM (inactive) | 61.5 µM (inactive) |
| CCCCN/C(=N\C#N)N(Cc1ccccc1)Cc1ccccc1 | 35.7 µM (inactive) | 41.7 µM (inactive) | 16 µM (inactive) | 16.7 µM (inactive) | 15.5 µM (inactive) | 15.4 µM (inactive) | 17.3 µM (inactive) | 15 µM (inactive) | 34.2 µM (inactive) | 16.6 µM (inactive) | 22.2 µM (inactive) | 18.4 µM (inactive) | 37 µM (inactive) | 15.2 µM (inactive) | 31.6 µM (inactive) | – |
| COC1[C@@H](OC(C)=O)[C@@H](NC(=O)C(Cl)(Cl)Cl)C(I)[C@@H](N2C(=O)c3ccccc3C2=O)[C@H]1OC (stereo partly drawn) | > 100 µM (inactive) | > 100 µM (inactive) | > 100 µM (inactive) | > 100 µM (inactive) | > 100 µM (inactive) | > 100 µM (inactive) | 48.6 µM (inactive) | > 100 µM (inactive) | > 100 µM (inactive) | > 100 µM (inactive) | > 100 µM (inactive) | > 100 µM (inactive) | > 100 µM (inactive) | – | – | > 100 µM (inactive) |
| CC(C)(C)[Si](C)(C)O/N=C\c1cccc(O[Si](C)(C)C(C)(C)C)c1 | 20.7 µM (inactive) | – | 18.5 µM (inactive) | 19.3 µM (inactive) | 19.2 µM (inactive) | 16.7 µM (inactive) | – | – | – | 18.1 µM (inactive) | 18.6 µM (inactive) | 17.8 µM (inactive) | 20 µM (inactive) | 17.9 µM (inactive) | 24.5 µM (inactive) | – |
| O=C1CCCCCCCCCCC(=O)C2CCOCCOCCOCCC1Cc1cccc(n1)C2 | > 100 µM (inactive) | 60 µM (inactive) | > 100 µM (inactive) | 59.2 µM (inactive) | > 100 µM (inactive) | > 100 µM (inactive) | 82.8 µM (inactive) | 43.9 µM (inactive) | > 100 µM (inactive) | 50.1 µM (inactive) | 90.4 µM (inactive) | 93.3 µM (inactive) | 59.3 µM (inactive) | > 100 µM (inactive) | > 100 µM (inactive) | – |
